In ChEMBL document CHEMBL1201862, “PubChem BioAssay data set” (2004):
The source made the active and inactive calls.

Assays:
Large T antigen = Large T antigen (Simian virus 40, UniProt P03070); assay type: functional, Betapolyomavirus macacae;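 note: Confirmatory-stage PubChem screen for compounds that inhibit SV40 T antigen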
[1] = target: T1, Rac GTPase-activating protein 1 (Homo sapiens, UniProt Q9H0H5); assay: MgcRacGAP GTPase-activating activity inhibitors, confirmation, biochemical, ADP Hunter fluorescence, primary and confirmatory (AID 624330); assay type: functional
T1 sequence (Q9H0H5 whole entry): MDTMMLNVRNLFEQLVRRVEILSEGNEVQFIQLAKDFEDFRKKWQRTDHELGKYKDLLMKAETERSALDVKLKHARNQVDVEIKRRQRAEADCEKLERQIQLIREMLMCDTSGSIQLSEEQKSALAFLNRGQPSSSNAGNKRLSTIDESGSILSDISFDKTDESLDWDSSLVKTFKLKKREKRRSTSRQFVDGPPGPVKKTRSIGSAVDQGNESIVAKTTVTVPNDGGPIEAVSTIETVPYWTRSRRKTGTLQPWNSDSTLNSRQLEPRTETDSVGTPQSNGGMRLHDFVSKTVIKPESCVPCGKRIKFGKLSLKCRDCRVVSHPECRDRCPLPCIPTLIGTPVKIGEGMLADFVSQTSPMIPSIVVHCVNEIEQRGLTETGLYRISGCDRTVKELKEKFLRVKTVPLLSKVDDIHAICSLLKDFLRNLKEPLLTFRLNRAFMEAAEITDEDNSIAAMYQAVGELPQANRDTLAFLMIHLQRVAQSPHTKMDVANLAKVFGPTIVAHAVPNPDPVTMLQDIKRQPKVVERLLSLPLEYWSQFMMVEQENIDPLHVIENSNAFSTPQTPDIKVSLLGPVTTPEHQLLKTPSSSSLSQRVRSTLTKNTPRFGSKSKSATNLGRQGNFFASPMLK

[2] = HEp-2 cell cytotoxicity, dose response, cytotoxicity control for RSV inhibitor project, HTS (AID 2410); assay type: functional; settings: human respiratory syncytial virus
[3] = inhibitors of firefly luciferase expression or activity, dose response, H4 neuroglioma cells, luminescence (AID 1990); assay type: functional, cell-based
[4] = Luminescence Cell-Based Dose Response HTS to Identify Inhibitors of 5'UTR Stem-Loop Driven Prion Protein mRNA Translation in H4 Neuroglioblastoma Cells. [Related pubchem assays: 1827 (Project Summary), 1813 (Primary HTS)]; assay type: functional
[5] = inhibitors of SNCA 5'UTR-driven reporter translation, confirmation, H4 neuroglioma cells, luminescence (AID 1988); assay type: functional, cell-based
[6] = target: T2, Corticotropin-releasing factor receptor 2/Corticotropin-releasing factor-binding protein (Homo sapiens, UniProt P24387+Q13324); assay: Dose Response confirmation of uHTS hits for small molecule antagonists of the CRF-binding protein and CRF-R2 receptor complex.; assay type: functional; settings: read-out: IC50_Mean
T2 sequence (Q13324 whole entry): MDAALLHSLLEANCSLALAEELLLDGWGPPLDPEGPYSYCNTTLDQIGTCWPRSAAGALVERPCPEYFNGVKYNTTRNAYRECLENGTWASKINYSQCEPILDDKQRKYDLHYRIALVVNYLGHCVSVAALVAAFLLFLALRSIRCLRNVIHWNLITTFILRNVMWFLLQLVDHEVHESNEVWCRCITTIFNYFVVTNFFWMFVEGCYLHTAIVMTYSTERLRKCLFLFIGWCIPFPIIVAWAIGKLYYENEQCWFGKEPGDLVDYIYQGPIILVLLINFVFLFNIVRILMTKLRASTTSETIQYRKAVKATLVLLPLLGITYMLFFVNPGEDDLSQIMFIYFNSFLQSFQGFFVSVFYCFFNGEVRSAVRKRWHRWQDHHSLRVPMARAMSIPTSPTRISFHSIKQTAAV
T2 sequence (P24387 whole entry): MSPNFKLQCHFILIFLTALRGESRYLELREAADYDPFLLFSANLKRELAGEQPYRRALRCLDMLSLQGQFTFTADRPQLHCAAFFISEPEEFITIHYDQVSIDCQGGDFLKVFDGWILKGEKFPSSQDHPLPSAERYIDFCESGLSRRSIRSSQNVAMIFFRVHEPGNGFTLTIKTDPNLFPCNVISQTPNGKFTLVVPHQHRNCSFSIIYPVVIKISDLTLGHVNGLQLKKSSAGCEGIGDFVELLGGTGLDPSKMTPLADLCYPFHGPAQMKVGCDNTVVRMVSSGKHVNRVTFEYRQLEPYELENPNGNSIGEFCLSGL

[7] = target: T2, Corticotropin-releasing factor receptor 2/Corticotropin-releasing factor-binding protein; assay: activators of CRF receptor 2 with binding protein – uHTS hits, confirmation (AID 602473); assay type: functional; settings: read-out: EC50_Mean
[8] = target: T3, Heat shock factor protein 1 (Mus musculus, UniProt P38532); assay: HSF1 potentiators in luciferase reporter cells, confirmation, cell-based, NIH3T3, luminescence, dose retest (AID 435004); assay type: functional;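 note: stress induced by proteasome inhibitor MG132 added 30 min after compound; luciferase reporter driven by HSF1 response element in NIH3T3 cells; actives raise luminescence as potentiators of the MG132 stress response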
T3 sequence (P38532 whole entry): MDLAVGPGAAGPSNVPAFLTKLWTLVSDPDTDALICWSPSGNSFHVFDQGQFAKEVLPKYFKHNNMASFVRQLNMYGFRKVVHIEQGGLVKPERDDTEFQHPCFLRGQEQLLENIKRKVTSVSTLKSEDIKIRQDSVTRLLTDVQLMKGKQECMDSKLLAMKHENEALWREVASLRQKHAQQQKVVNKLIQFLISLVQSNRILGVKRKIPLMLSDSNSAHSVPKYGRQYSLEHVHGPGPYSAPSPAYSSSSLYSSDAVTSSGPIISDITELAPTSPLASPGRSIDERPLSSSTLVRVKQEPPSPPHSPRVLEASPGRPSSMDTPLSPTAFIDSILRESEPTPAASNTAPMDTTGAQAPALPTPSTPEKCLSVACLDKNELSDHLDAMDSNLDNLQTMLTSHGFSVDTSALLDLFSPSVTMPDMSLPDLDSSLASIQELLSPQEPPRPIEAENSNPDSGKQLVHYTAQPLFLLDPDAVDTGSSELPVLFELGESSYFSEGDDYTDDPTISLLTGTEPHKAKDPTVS

[9] = target: T4, Ubiquitin-conjugating enzyme E2 N (Homo sapiens, UniProt P61088); assay type: functional;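 note: Dose-response confirmation in a TR-FRET assay detecting UBC13-driven polyubiquitin chain formation, inhibition measured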
T4 sequence (P61088 whole entry): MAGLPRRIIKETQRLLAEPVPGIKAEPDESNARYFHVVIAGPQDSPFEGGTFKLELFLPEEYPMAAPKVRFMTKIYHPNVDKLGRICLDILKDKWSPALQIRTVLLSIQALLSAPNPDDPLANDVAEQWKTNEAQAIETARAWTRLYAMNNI

[10] = tested on: Streptococcus sp. 'group A'; assay: growth inhibition of control SK(-) GAS strain, dose response, counter-screen for streptokinase expression inhibitor project, luminescence, kanamycin, BacTiterGlo, confirmation (AID 1900); assay type: functional, organism-based
Streptococcus = assay: Group A Streptococcus viability loss, dose response, counter-screen for streptokinase expression inhibitor project, luminescence, BacTiterGlo (AID 1915); assay type: functional, organism-based;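 note: potency for reduction of bacterial viability or growth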
INS1 = assay: beta cell apoptosis inhibitors, cytokine rescue, dose response, luminescence, retest (AID 449756); assay type: functional, cell-based; settings: Rattus norvegicus;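 note: cell death triggered by IL-1 beta plus TNF-alpha plus IFN-gamma mixture; protective hits raise ATP signal compared with cytokine alone wells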
Cytochrome P450 2C9 = Cytochrome P450 2C9 (Homo sapiens, UniProt P11712)
Chain of Cytochrome P450 2C9 (P11712 whole entry): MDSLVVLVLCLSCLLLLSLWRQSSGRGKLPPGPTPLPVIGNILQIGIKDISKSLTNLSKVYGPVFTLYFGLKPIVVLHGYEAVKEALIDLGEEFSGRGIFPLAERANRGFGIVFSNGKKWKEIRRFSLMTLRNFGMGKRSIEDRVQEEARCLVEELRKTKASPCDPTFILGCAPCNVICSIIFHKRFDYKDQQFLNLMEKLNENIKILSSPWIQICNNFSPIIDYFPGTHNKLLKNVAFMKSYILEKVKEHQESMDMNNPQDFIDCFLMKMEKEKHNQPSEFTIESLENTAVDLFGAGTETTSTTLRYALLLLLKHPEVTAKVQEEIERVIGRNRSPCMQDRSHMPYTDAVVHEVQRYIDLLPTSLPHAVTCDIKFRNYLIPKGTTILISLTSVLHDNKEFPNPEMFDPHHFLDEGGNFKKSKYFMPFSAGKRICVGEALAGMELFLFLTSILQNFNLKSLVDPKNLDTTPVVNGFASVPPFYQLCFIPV

[11] = Luminescence Cell-Based Dose Retest to Confirm Inhibitors of Cancer Stem Cells. [Related pubchem assays (depositor defined):AID2717, AID2721]; assay type: functional; settings: Homo sapiens
[12] = target: T3, Heat shock factor protein 1; assay: inhibition of MG132-induced HSE-luciferase signal, confirmation, cell-based, NIH3T3, luminescence, dose retest (AID 2382); assay type: functional;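 note: NIH3T3 fibroblasts with HSF1-driven luciferase reporter stressed by proteasome inhibitor MG132; luminescence from HSF1-driven luciferase expression after 8 hours of MG132 stress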
[13] = off-target signal loss in HeLa-CEM21 co-culture – HeLa F-luc CTL cells, cherry-picked, counter-screen for HIV-1 Env fusion inhibitor project, dose response (AID 652040); assay type: functional, cell-based;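 note: potency for signal decrease marking cytotoxic or nonspecific inhibition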

Chain of Large T antigen (P03070 whole entry): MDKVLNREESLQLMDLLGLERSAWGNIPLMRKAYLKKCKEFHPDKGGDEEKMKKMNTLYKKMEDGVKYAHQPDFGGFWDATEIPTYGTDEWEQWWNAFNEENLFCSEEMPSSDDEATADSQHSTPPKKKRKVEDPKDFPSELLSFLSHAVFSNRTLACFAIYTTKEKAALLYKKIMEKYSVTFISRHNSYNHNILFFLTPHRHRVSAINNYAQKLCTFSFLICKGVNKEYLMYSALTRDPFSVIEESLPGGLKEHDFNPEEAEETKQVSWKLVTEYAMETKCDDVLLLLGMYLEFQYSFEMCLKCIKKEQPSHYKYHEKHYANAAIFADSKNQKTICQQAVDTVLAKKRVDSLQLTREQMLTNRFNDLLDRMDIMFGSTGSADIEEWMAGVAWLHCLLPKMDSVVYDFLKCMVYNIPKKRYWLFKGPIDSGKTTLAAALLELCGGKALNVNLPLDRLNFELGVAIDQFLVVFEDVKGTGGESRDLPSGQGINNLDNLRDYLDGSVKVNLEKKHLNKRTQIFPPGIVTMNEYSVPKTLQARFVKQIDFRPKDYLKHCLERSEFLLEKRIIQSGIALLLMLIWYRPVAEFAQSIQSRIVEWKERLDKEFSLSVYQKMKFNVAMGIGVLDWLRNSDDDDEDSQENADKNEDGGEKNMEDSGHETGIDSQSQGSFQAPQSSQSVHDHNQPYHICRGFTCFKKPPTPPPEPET

SMILES: COc1cc(/C=N/n2cnnc2)ccc1OC(=O)c1ccncc1
- IC50 (Large T antigen): 75 µM (active)
- IC50 [1]: 31 µM (active)

SMILES: O=C1NC(c2ccccc2)=C(c2nc3ccccc3s2)C(c2ccc(F)cc2)N1 (stereo not drawn)
- CC50 [2]: 10.4 µM (active)
- EC50 [3]: > 60 µM (not active)
- EC50 [4]: > 120 µM (not active)
- EC50 [5]: 20.8 µM (active)

SMILES: CC(Nc1ccc([N+](=O)[O-])cc1[N+](=O)[O-])c1ccccc1 (stereo not drawn)
- IC50 [6]: 34.7 µM (active)
- EC50 [7]: > 53 µM (inactive)

SMILES: O=C1CC2CS(=O)(=O)CC2N1c1ccc(Oc2ccccc2)cc1 (stereo not drawn)
- IC50 [6]: > 47.1 µM (inactive)
- EC50 [7]: > 53 µM (inactive)

SMILES: COc1cc2nc(S)nc(NCc3ccc(Cl)cc3)c2cc1OC
- EC50 [8]: > 260 µM (inactive)

SMILES: CCC(=O)NC(c1cccs1)c1cc(Cl)c2ccccc2c1O (stereo not drawn)
- IC50 [9]: > 20 µM (inactive)

SMILES: Cc1ccc(NC(=O)N2CCCC2C(=O)Nc2c(C)cc(C)cc2C)cc1 (stereo not drawn)
- EC50 [8]: > 260 µM (inactive)

SMILES: O=C(NCc1nnc(SCc2ccccc2)n1-c1ccccc1)C12CC3CC(CC(C3)C1)C2
- EC50 [8]: > 260 µM (inactive)

SMILES: Nn1cnnc1N/N=C/c1cc([N+](=O)[O-])c(Cl)cc1Cl
- EC50 [8]: > 260 µM (inactive)

SMILES: O=C(NC(=S)Nc1ccc(O)cc1)c1cncc(Br)c1
- IC50 (Large T antigen): 6.41 µM (active)

SMILES: Cc1ccc(CC(=O)NCCCc2ccccc2)cc1
- IC50 [6]: > 47.1 µM (inactive)
- EC50 [7]: > 53 µM (inactive)

SMILES: Oc1c(Br)cc(-c2ccccc2)cc1Br
- IC50 [6]: 10.1 µM (active)
- EC50 [7]: > 53 µM (inactive)
- IC50 [1]: 85 µM (active)

SMILES: CC(C)CC(=O)Nc1ccc(C(=O)NNC(=S)NC(=O)C2CCCCC2)cc1
- EC50 [3]: 12.5 µM (active)
- EC50 [10]: 1.65 µM (active)
- EC50 [4]: 14.8 µM (active)
- EC50 [5]: 12.4 µM (active)
- EC50 (Streptococcus): 5.23 µM (active)

SMILES: COc1ccc(CN2C(=O)NC(=O)/C(=C/c3ccoc3)C2=O)cc1
- IC50 (Large T antigen): 36.9 µM (active)

SMILES: COc1ccc(O)c(/C=N/NC(=O)c2cccc(N3CCCC3=O)c2)c1
- AC50 (INS1): 3.55 µM (active)

SMILES: Cc1cc(C(=O)NNC(=O)C(CCC(N)=O)NS(=O)(=O)c2ccc(Cl)cc2)c(C)o1 (stereo not drawn)
- IC50 [6]: > 47.1 µM (inactive)
- EC50 [7]: > 53 µM (inactive)

SMILES: CC(C)NC(=O)NC(=O)COc1ccc(Br)cc1Br
- EC50 [8]: > 260 µM (inactive)

SMILES: O=C(NCc1ccccc1)c1ccc(Cl)cc1
- IC50 [6]: > 47.1 µM (inactive)
- EC50 [7]: > 53 µM (inactive)

SMILES: COc1cc(C2C(C#N)=C(N)N(Nc3ccccc3)C3=C2C(=O)CC(C)(C)C3)ccc1OCc1ccccc1 (stereo not drawn)
- EC50 [3]: 13.4 µM (active)
- EC50 [4]: 18.7 µM (active)
- EC50 [5]: > 120 µM (not active)
- AC50 (Cytochrome P450 2C9): 0.794 µM (inconclusive)

SMILES: O=C1c2ccccc2C(=O)c2c1cccc2-n1nnc2ccccc21
- EC50 [3]: 16.3 µM (active)
- EC50 [4]: > 120 µM (not active)
- EC50 [5]: > 120 µM (not active)

SMILES: Cn1c(NNC(=O)c2ccccc2F)cc(=O)n(C)c1=O
- EC50 [3]: > 120 µM (not active)
- EC50 [4]: > 120 µM (not active)
- EC50 [5]: > 120 µM (not active)

SMILES: CC1=C(C(=O)N(C(C)C)C(C)C)CC(CC(=O)NC2CCCCC2)C(=O)N1Cc1ccccc1 (stereo not drawn)
- IC50 [6]: > 47.1 µM (inactive)
- EC50 [7]: > 53 µM (inactive)

SMILES: O=Nc1c(-c2ccccc2)[nH]n(-c2ccccc2)c1=O
- EC50 [8]: 3.87 µM (active)

SMILES: Oc1ccc(-c2cnc(-c3ccc(O)cc3)nc2)cc1
- AC50 [11]: 0.342 µM (active)
- EC50 [8]: 4.99 µM (active)

SMILES: COc1cc(C(c2c(C)n[nH]c2O)c2c(C)n[nH]c2O)ccc1OC(=O)c1cccc([N+](=O)[O-])c1
- IC50 (Large T antigen): > 100 µM (active)

SMILES: COc1ccc(NC(=O)CSc2nnc(Cn3cnc([N+](=O)[O-])n3)n2C)cc1
- EC50 [8]: > 260 µM (inactive)

SMILES: Cc1ccnc(NS(=O)(=O)c2ccc(NC(=O)COc3ccccc3)cc2)n1
- EC50 [3]: > 120 µM (not active)
- EC50 [4]: > 120 µM (not active)
- EC50 [12]: > 195 µM (not active)
- EC50 [5]: > 120 µM (not active)

SMILES: COc1ccnc2c1c(=O)n(Cc1cccc(F)c1)c(=O)n2C
- IC50 [9]: > 20 µM (inactive)

SMILES: OCCN1CCN(CC/C=C2/c3ccccc3Sc3ccc(Cl)cc32)CC1
- IC50 [9]: > 20 µM (inactive)

SMILES: COc1cccc(CNc2ccc(Br)cn2)c1O
- EC50 [8]: 34.1 µM (active)

SMILES: Cc1cccc(-c2cc(C(=O)Nc3ccncc3)c3ccccc3n2)c1
- EC50 [8]: 43.1 µM (active)

SMILES: COc1cccc(CNC(=O)c2nnn(CC(=O)Nc3ccc(Br)cc3)c2N)c1
- EC50 [3]: 46.9 µM (active)
- EC50 [4]: 103 µM (active)
- EC50 [5]: 11 µM (active)

SMILES: Cc1cc(Cl)ccc1OCC(=O)NNC(=O)C1CSC2(C)CCC(=O)N12 (stereo not drawn)
- AC50 [13]: 39.8 µM (active)

SMILES: ClCC1=Nc2cccc3cccc(c23)N1
- IC50 (Large T antigen): 10 µM (active)
